The target in experiment [1] is T1, cathepsin D isolated from the human liver (Homo sapiens, UniProt P07339).
T1 construct: cathepsin D isolated from the human liver (Sigma-Aldrich); purchased Sigma-Aldrich; host or cells: human liver (tissue-derived, not recombinant)
As to the kind of experiment: In-vitro fluorescence assay for identification of cathepsin D inhibitors. To be noted: human liver cathepsin D 1.4 nM, pH 5.5; read-out: CatD assay IC50-(M). In kind it is biochemical. Summed up:
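Continuous FRET assay: human liver cathepsin D (1.4 nM final) preincubated 10 min at room temperature with serially diluted compound in 100 mM sodium acetate, 1.25% DMSO, 0.25% Chaps, pH 5.5. Started with 5 μM MCA-GKPILFFRLK(Dnp)d-R-NH2; fluorescence increase (ex 340/em 450 nm) over 60 min at room temperature compared with no-compound control.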

The next experiment has as its target T2, recombinant human renin (Homo sapiens, UniProt P00797).
T2 construct: purchased Proteos, Kalamazoo, Mich
T2 sequence (P00797 67-406): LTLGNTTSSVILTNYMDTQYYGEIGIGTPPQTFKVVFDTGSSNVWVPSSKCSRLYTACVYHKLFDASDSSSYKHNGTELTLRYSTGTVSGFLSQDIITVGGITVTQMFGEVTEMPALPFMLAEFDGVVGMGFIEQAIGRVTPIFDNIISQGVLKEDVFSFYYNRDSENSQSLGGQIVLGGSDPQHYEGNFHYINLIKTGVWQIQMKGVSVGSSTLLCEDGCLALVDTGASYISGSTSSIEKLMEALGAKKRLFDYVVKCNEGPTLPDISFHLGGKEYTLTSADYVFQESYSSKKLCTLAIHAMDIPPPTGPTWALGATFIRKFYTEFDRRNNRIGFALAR
Kind of experiment: In-vitro fluorescence assay for identification of renin-inhibitory activity. In kind it is biochemical. Conditions: recombinant human renin 10 nM, FRET substrate 5 μM, pH 7.2; read-out: Renin selectivity IC50. The protocol: EXAMPLE 8: IN-VITRO FLUORESCENCE ASSAY FOR IDENTIFICATION OF RENIN-INHIBITORY ACTIVITY
In order to identify modulators of renin activity, a continuous enzymatic test was carried out with a synthetic peptide which carries a fluorescent group Edans (=(5-(aminoethyl)aminonaphthalenesulfonate) which is quenched by energy transfer from a Dabcyl (4′-dimethylaminoazobenzene-4-carboxylate) group on the same molecule, in Greiner 384-well microtitre plates. Cleavage of the peptidic substrate by renin causes an increase in the fluorescence intensity. In order to determine the efficacy of substances, the time-dependent increase in the fluorescence intensity in the presence of the substance was compared with the time-dependent increase in fluorescence in the absence of substances. The reference substance used was renin inhibitor 2 (Z-Arg-Arg-Pro-Phe-His-Sta-Ile-His N-Boc-Lys methyl ester Z) (Sigma-Aldrich). The substrate used was renin FRET substrate I (DABCYL-g-Abu-Ile-His-Pro-Phe-His-Leu-Val-Ile-His-Thr-EDANS) (Anaspec, Fremont Calif.). The enzyme employed was recombinant human renin (Pro-teos, Kalamazoo, Mich.) in a final concentration of 10 nM. The test was carried out in 50 mM Mops buffer, 1.5% (v/v) of DMSO, 0.1% (w/v) of Igepal®, pH 7.2, 0.5% (w/v) of BSA. 2 μl of each substance solution with serially diluted substance concentration were added to in each case 4 μl of renin solution and incubated at room temperature for 15 min. The reaction was started by addition of 4 μl of substrate solution (final concentration 5 μM). After carrying out a starting-point fluorescence measurement (excitation wavelength 340 nm/emission wavelength 495 nm) using an Envision multilabel reader (Perkin Elmer), the reaction was incubated at 37° C. for 60 min. The amount of peptide fragment cleaved off during the reaction time was subsequently measured by determination of the increase in the fluorescence intensity at 495 nm (excitation wavelength 340 nm).
Result: all compounds measured have an IC50 of the renin selectivity of >30 μM (see Table 2 in Example 1).

From patent US10077288B2, “Hydroxystatin derivatives for the treatment of arthrosis” (Merck Patent GmbH, priority 2012, dated 2018) come the findings set out here.

pIC50: −log10 of the molar value.

T1 sequence (P07339 65-161 limits assumed): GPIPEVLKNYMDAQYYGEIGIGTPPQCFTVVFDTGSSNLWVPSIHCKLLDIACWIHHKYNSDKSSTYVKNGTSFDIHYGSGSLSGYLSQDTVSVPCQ
T1 sequence (P07339 169-412 limits assumed): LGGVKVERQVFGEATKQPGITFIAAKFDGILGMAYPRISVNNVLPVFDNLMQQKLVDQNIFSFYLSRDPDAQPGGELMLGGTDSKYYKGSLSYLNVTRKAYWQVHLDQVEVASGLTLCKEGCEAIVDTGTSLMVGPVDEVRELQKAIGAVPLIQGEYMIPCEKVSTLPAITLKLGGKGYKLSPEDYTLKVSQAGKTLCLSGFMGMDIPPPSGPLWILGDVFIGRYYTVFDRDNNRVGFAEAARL

As usually defined, the IC50 is the concentration needed to halve the response being measured. As for `CC[C@H](C)[C@H](NC(=O)C[C@H](O)[C@H](Cc1ccccc1)NC(=O)[C@@H](NC(=O)CCc1ccccc1)C(C)C)C(=O)N[C@H](C(=O)O)C(C)C` [Compound 4, (S)-2-((2S,3S)-2-{(3S,4S)-3-hydroxy-4-[(S)-3-methyl-2-(3-phenyl-propionylamino)butyrylamino]-5-phenylpentanoylamino}-3-methylpentanoylamino)-3-methylbutyric acid], the IC50 in experiment [1] stood at 3e-08 M.
On to `CC[C@H](C)[C@H](NC(=O)C[C@H](O)[C@H](Cc1ccccc1)NC(=O)[C@@H](NC(=O)Cc1cccc(OC)c1)C(C)C)C(=O)N[C@H](C(=O)O)C(C)C` [Compound 20, (S)-2-[(2S,3S)-2-((3S,4S)-3-hydroxy-4-{(S)-2-[2-(3-methoxyphenyl)-acetylamino]-3-methylbutyrylamino}-5-phenylpentanoylamino)-3-methylpentanoylamino]-3-methylbutyric acid], for which the half-maximal inhibitory concentration (IC50) in experiment [1] was found to be 1.2e-08 M.
What is called pIC50 is −log10 of the IC50, conventionally taken in molar units. As to `CC[C@H](C)[C@H](NC(=O)C[C@H](O)[C@H](Cc1ccccc1)NC(=O)[C@@H](NC(=O)CCCc1ccccc1)C(C)C)C(=O)N[C@H](C(=O)O)C(C)C` [Compound 5, (S)-2-((2S,3S)-2-{(3S,4S)-3-hydroxy-4-[(S)-3-methyl-2-(4-phenyl-butyrylamino)butyrylamino]-5-phenylpentanoylamino}-3-methylpentanoylamino)-3-methylbutyric acid], at recombinant human renin, the negative logarithm of the IC50 (pIC50) is 4.70. In addition, in experiment [1], the IC50 is 3.41e-08 M.
